{
  "source": "patent US20250275929A1",
  "about": "“INTRAOPERATIVE TOPICALLY-APPLIED NON-IMPLANTABLE RAPID RELEASE PATCH” (PRIVO TECHNOLOGIES, INC., priority 2017, published 2025)",
  "experiment": "HPLC chromatograms of agent from patch and from gamma sterilized patch",
  "type": "physicochemical",
  "from_the_text": "FIGS. 9A, 9B, and 9C are graphs showing that agent(s) included within a patch, according to embodiments of the present invention, are not modified when incorporated into the patch or when the patch is sterilized. FIG. 9A is a graph showing a high-performance liquid chromatography (H PLC) chromatogram of a cisplatin standard. FIG. 9B is a graph showing an HPLC chromatogram of a patch, which illustrates that the cisplatin was not modified.\nThe patch is sterilized prior to application to a surgical cavity, for example after the patch is manufactured and before packaging. In some embodiments, gamma sterilization is employed to sterilize the patch. FIGS. 9A-9C show HPLC chromatograms at various stages of product synthesis. The HPLC apparatus was an Agilent 1100 Series HPLC using a water/methanol/sodium lauryl sulfate solvent mixture adjusted to pH 2.5 with trifluoromethanesulfonic acid. FIG. 9A is an HPLC chromatogram of a cisplatin standard. FIG. 9B is an HPLC chromatogram of a cisplatin sample taken from a patch that was dissolved in a solution, which illustrates that the cisplatin was not modified while in the patch. […] Similar experiments were conducted using oxaliplatin and 5-fluorouracil. This experiment proves that the patches are able to be manufactured and sterilized while maintaining the integrity of the agent(s) included within.",
  "data": [
    {"compound": "N.N.[Cl][Pt][Cl]", "note": "[cisplatin]", "values": [
      {"measurement": "integrity of agent after gamma ray sterilization of patch (HPLC)", "setting": "gamma ray sterilization for 25 minutes", "result": "not modified"},
      {"measurement": "integrity of agent while in the patch (HPLC)", "setting": "sample taken from a patch dissolved in a solution", "result": "not modified"}
    ]}
  ]
}
